Consider four compounds from patent US11078192B2, “Aromatic acetylene or aromatic ethylene compound, intermediate, preparation method, pharmaceutical composition and use thereof” (GUANGZHOU MAXINOVEL PHARMACEUTICALS CO., LTD., priority 2016, dated 2021).

For the assay, the target named is PD-1/PD-L1 (Homo sapiens (Human), UniProt Q9NZQ7). Description: Homogeneous Time-Resolved Fluorescence (HTRF) binding assay. The settings on record: CisBio kit #64CUS000C-1, read-out: IC50 of compounds binding to PD-1/PD-L1. As to the method: Homogeneous Time-Resolved Fluorescence (HTRF) binding assay was used to determine the binding activity of the compound of the present invention to PD-1/PD-L1.
Chain of PD-1/PD-L1 (Q9NZQ7 19-238): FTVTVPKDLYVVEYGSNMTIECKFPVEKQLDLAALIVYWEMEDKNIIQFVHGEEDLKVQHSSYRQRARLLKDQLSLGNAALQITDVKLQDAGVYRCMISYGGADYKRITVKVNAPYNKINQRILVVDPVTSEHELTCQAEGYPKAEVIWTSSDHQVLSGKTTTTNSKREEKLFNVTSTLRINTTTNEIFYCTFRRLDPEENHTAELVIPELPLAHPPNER
The purchased kit (CisBio, #64CUS000C-1) contained reagents required for assays such as PD-1, PD-L1, anti-tag1-Eu, Anti-tag2-XL665, Dilute Buffer, and Detection Buffer.
1. The compound was formulated to 10 concentrations with a 3-fold gradient with 100% DMSO.
2. The solution of the compound in DMSO was added to Dilute Buffer, mixed thoroughly, then transferred to a 96-well plate.
3. PD-L1 was diluted with Dilute Buffer, then added to the above 96-well plate.
4. PD-1 was diluted with Dilute Buffer and added to the above 96-well plate, which was then incubated at room temperature for 30 minutes.
5. A portion of anti-tag1-Eu and a portion of anti-tag2-XL665 were added to Detection Buffer, mixed thoroughly and transferred to the above 96-well plate.
6. The mixture in the above 96-well plate was incubated at room temperature for 1 to 24 hours.
7. HTRF values were read with Envision.
Turning to `Cc1c(/C=C/c2cc(CN3CCC[C@H]3CO)ccc2C(F)(F)F)cccc1-c1ccc2c(c1)OCCO2` [Compound 67, (S,E)-(1-(3-(3-(2,3-Dihydrobenzo[b][1,4]dioxin-6-yl)-2-methylstyryl)-4-(trifluoromethyl)benzyl)pyrrolidin-2-yl)methanol], the IC50 was determined as 2400 nM.

For `Cc1cc(CNC(CO)C(=O)O)cnc1/C=C/c1cccc(-c2ccc3c(c2)OCCO3)c1C` (stereo not shown) [Compound 69, (E)-2-((6-(3-(2,3-Dihydrobenzo[b][1,4]dioxin-6-yl)-2-methylstyryl)-5-methylpyridin-3-yl)methylamino)-3-hydroxypropanoic Acid], the IC50 turned out to be 36 nM.

Take “(R,E)-2-(3-Chloro-4-(2-(2-methylbiphenyl-3-yl)vinyl)benzylamino)-3-hydroxypropionamide [Compound 34]”: the IC50 came out at 340 nM.

Regarding “(S,E)-2-(3-Chloro-4-(2-(2-methylbiphenyl-3-yl)vinyl)benzylamino)-3-hydroxypropanamide [Compound 33]”, the IC50 came out at 480 nM.
